Consider 17 compounds from ChEMBL document CHEMBL3102855, “Synthesis of long-chain fatty acid derivatives as a novel anti-Alzheimer's agent” (Bioorg Med Chem Lett, 2014).

Calls of active or inactive are those of the source. The calls are words filed in the database; no cut-off is given here.

The subject of this assay is Cortical neurone. Kind of assay: Induction of dendrite extension in rat cortical neurons assessed as inhibition of amyloid beta (25 to 35)-induced neuronal degeneration at 1 uM after 4 days by fluorescence microscopic analysis. It is filed as functional.
As to `CC/C=C\CCCCCCCCC/C=C\CCCCCCCCCCCCCCCCCCCCCCCCCCCCCC(=O)O`, the result was Active. Then `CCCCCCC/C=C\CCCC/C=C\CCCCCCCCCCCCCCCCCCCCCC(=O)O`, with “Active”. Under `CC/C=C\CCCCCCCCC/C=C\CCCCCCCC(=O)O` stands “Active”; under `CC/C=C\CCCCCCCCC/C=C\CCCCCCCCCCC(=O)O`, “Active”; under `CCCCCCCCCCCCCCCCC/C=C\CCCCCCCCCCCCCCCCCCCCCC(=O)O`, “Active”. Then `CC/C=C\CCCCCCCCC/C=C\CCCCCCCCCCCCCCCCCCCCCC(=O)O`, with “Active”; and `CCCCCCCCCCCCCCCCCCCCCC(=O)O`, with “Active”; and `CCCCCCCCCCCCC/C=C\CCCCCCCCCCCCCCCCCCCCCC(=O)O`, with “Active”. For the compound `CCCCCCCCCC/C=C\CCCCCCCCCC(=O)O`, the result was Active. Take `CCCCCCCCCCCCC/C=C\CCCCCCCCCCCCC(=O)O`: the outcome was Active. Under `CCCCCCCCCCCCCCCCCCCCCCCCCCCC(=O)O` stands “Active”; under `CCCCC/C=C\CCCCCC/C=C\CCCCCCCCCCCCCCCCCCCCCC(=O)O`, “Active”. Then `CCCCCCCCCC/C=C\C/C=C\CCCCCCCCCCCCCCCCCCCCCC(=O)O`, with “Active”; and `CCCCCCCCCCCCC/C=C\CCCCCCCCCCCCCCCCCCCCCCO`, with “Active”; and `CC/C=C\CCCCCCCCC/C=C\CCC(=O)O`, with “Active”.

On to `CCCCCCCCCCCCC/C=C\CCCCCCCCCCCCCO`, for which the result was Active.

Turning to `CCCCCCCCCCCCCCCCCCCCCCCCCCCCCCCCCCCCC(=O)O`, the outcome was Active.
